Measured values: patent EP2177496A1, “New analogs of polysphorin and uses thereof for treating or preventing malaria” (Assistance Publique - Hôpitaux de Paris, priority 2008, dated 2010)

What was measured:
in vitro = conditions: human, TC50 (µM) Hepatic stage (rodent) P. yoelii, 50% toxic concentration, MTT assay
Description: (§1) A preliminary screening was performed consisting in the infection of human CD81 transfected hepatocarcinome cell line HepG2 (HepG2/CD81) with P. yoelii. IC50 (inhibiting concentration 50), TC50 (toxic concentration 50) and TI (therapeutic index, ratio TC50/IC50) were estimated for each drug tested. Selected molecules (small IC50, high TC50 and high TI) were analyzed in human hepatocytes. Briefly, HepG2 cells were plated in 96-well plates for 24 h prior to inoculation with 1x10^4 of P. yoelii sporozoites. Sporozoites-inoculated culture plates were centrifuged for 5 min at 1,500 rpm at 4°C in order to enhance the infection rate as described by Gruner (Gruner et al., 2005). After 3h at 37°C, the cultures were washed and further incubated in fresh medium for 48 h (P. yoelii) before quantification of infected cells in triplicate wells.
(§2) Toxicity was determined by using the colorimetric 3-(4,5-dimethylthiazol-2-yl)-2,5-diphenyltetrazolium bromide (MTT) assay (Mosman., 1983). Briefly, HepG2 cells cultures were prepared in 96-well plates as described above. Drugs were tested in triplicate wells at eight concentrations ranging from 6.4 × 10^-3 µM to 200 µM. One hundred microliters of 0.5 mg/ml MTT (5 mg/ml MTT in water diluted 10x in William's medium without fetal bovine serum) was added to each well, and the plates were incubated for 4 h (37°C, 5% CO2). The medium was discarded, and the cells were resuspended in ethanol and dimethyl sulfoxide (50/50, vol/vol). The plates were read in an enzyme-linked immunosorbent assay plate reader (550-nm absorbance wavelength and 620-nm reference wavelength). The results were expressed as the percent change in viability compared to drug-free control cultures. […] Each drug and concentration was tested at least in triplicate. The selectivity index (SI) was defined as the ratio of the TC50 to the IC50.

[1] = MTT toxicity assay reported with the erythrocytic stage (TC50), cells not named; type: cell-based; conditions: 50% toxic concentration, read-out: TC50 (µM) Erythrocytic stage P. falciparum
Description: The selectivity index (SI) was defined as the ratio of the TC50 to the IC50.

P. yoelii = experiment: In vitro activity against hepatic stage of P. yoelii (sporozoite-infected HepG2/CD81 cells or rodent hepatocytes, liver-schizont count); type: cell-based, P. yoelii (265 BY strain); conditions: rodent parasite P. yoelii, cultures arrested at 48 h
Description: (§3) Activity against pre-erythrocytic stages was tested by in vitro assays with the human parasite P. falciparum (NF54 strain) and the rodent parasite P. yoelii (265 BY strain). The rodent parasite P. yoelii is produced in the insectarium of the INSERM Unit U511 and human parasite P. falciparum was obtained from collaboration with R. Sauerwein.
(§4) Sporozoites were obtained from infected salivary glands of Anopheles stephensi mosquitoes fed on continuous culture of P. falciparum (coll R. Sauerwein, Netherlands), or on P. yoelii parasitized mice (insectarium of the INSERM Unit U511). After aseptic dissection, salivary glands were homogenized in a glass grinder and diluted in culture medium or sterile phosphate-buffered saline (PBS).
(§5) Primary cultures of rodent or human hepatocytes were prepared from liver segments taken from mouse or from adult patients undergoing partial hepatectomy. Hepatocytes were isolated using the two-step enzymatic perfusion technique (Guguen-Guillouzo et al., 1982) and were further purified on a discontinuous Percoll gradient. Then, hepatocytes were seeded in eight-chamber Lab-Tek permanox slides at a density of 1,4x10^5 cells per cm^2, and maintained under culture conditions as described in Mahmoudi et al., 2003. After complete adherence to culture plates, rodent and human hepatocytes were infected with P. yoelii or P. falciparum sporozoites, respectively, aseptically dissected from mosquitoes' salivary glands, as described above. Hepatocytes were inoculated with 6x10^4 sporozoites per Lab-Tek well. Compounds to be tested were added at the time of infection and/or after penetration of the sporozoites and at different concentrations (three wells per dilution). Every day, medium was replaced by fresh medium containing or not different concentrations of the molecules to be tested. Cultures were arrested at 48 hours (P. yoelii) or 6 days (P. falciparum) and cells were fixed with methanol. Liver-schizonts were quantified by microscopic examination after fluorescent labeling using a primary mouse antibody directed against Plasmodium heat shock protein-70 (Renia et al., 1990) produced in INSERM unit 511 and a secondary goat anti-mouse antibody conjugated with fluorescein isothiocyanate (Sigma Aldrich).

P. falciparum [2] = experiment: In vitro activity against erythrocytic stage of P. falciparum ([3H]-hypoxanthine incorporation); type: cell-based, chloroquine-sensitive (3D7w) clone of P. falciparum; conditions: read-out: IC50 (µM) Erythrocytic stage P. falciparum
Description: After 48 hours, [^3H]-hypoxanthine (Amersham) was added to each well and then plates were incubated for 24 hours. Parasites were harvested, and incorporation of radioactivity was determined by liquid scintillation counting (Beckman LS1701, les Ulis, France). The counts-per-minute (cpm) was adjusted relative to controls to obtain percentages of inhibition. […] This estimation was obtained with IC50 estimator software. For the assay, the parasites were synchronized by D-sorbitol treatment.

HepG2 cells = experiment: in vitro; conditions: read-out: TC50 (µM) Hepatic stage (rodent) P. yoelii; 50% toxic concentration, MTT assay
Description: as §1, §2

P. falciparum [3] = experiment: In vitro activity against hepatic stage of P. falciparum in primary human hepatocytes (liver-schizont count); type: cell-based, P. falciparum (NF54 strain); conditions: cultures arrested at 6 days
Description: as §3, §4
as §5, with “Every day, medium was replaced by fresh medium containing or not different concentrations of the molecules to be tested. Cultures were arrested at 48 hours (P. yoelii) or 6 days (P. falciparum) and cells were fixed with methanol.” left out

[4] = MTT toxicity assay on human hepatocytes (TC50)
Description: Cytotoxic effect of the compounds was evaluated on human hepatocytes, obtained as described above. The colorimetric MTT assay was used (Mosman., 1983). Briefly, hepatocyte cultures were prepared in 96-well plates as described above. Drugs were tested in triplicate wells at eight concentrations ranging from 6.4 x 10^-3 µM to 200 µM. One hundred microliters of 0.5 mg/ml MTT (5 mg/ml MTT in water diluted 10x in William's medium without fetal bovine serum) was added to each well, and the plates were incubated for 4 h (37°C, 5% CO2). The medium was discarded, and the cells were resuspended in ethanol and dimethyl sulfoxide (50/50, vol/vol). The plates were read in an enzyme-linked immunosorbent assay plate reader (550-nm absorbance wavelength and 620-nm reference wavelength). The results were expressed as the percent change in viability compared to drug-free control cultures. […] Each drug and concentration was tested at least in triplicate. The selectivity index (SI) was defined as the ratio of the TC50 to the IC50.

[5] = Plasmodium falciparum, Erythrocyte, 72 h, ring stage parasitized erythrocytes, 3D7w clone, 48 h + 24 h with [3H]-hypoxanthine
[6] = ring stage parasitized erythrocytes, 3D7w clone, 48 h + 24 h with [3H]-hypoxanthine
[7] = Plasmodium yoelii, Hepatocyte, 48 h

SMILES: COc1cc(C)cc(OC)c1OC(C)C(O)c1ccc2c(c1)OC(F)(F)O2 (centres unmarked) [drawing 72]
- CC50 (in vitro): 56.8 µM
- CC50 [1]: 57 µM
- IC50 (P. yoelii): 19 µM
- IC50 (P. falciparum [2]; [5]): 13.6 µM

SMILES: COc1cc(C(O)C(C)Oc2c(OC)cc(-c3ccccc3)cc2OC)cc(OC)c1OC (centres unmarked) [drawing 79]
- CC50 (HepG2 cells): > 50 µM
- CC50 [1]: 50 µM
- IC50 (P. falciparum [3]): 0.007 µM
- IC50 (P. yoelii): 3.61 ± 4 µM
- IC50 (P. falciparum [2]; [6]): 20 µM

SMILES: COc1cc(C(O)C(C)Oc2c(OC)cc(C)cc2OC)cc(OC)c1OC (centres unmarked) [drawing 76]
- CC50 (in vitro): 47 µM
- CC50 [1]: 47 µM
- IC50 (P. yoelii): 50.1 µM
- IC50 (P. falciparum [2]; [5]): > 40 µM

SMILES: COc1cc(C)cc(OC)c1OC(C)C(O)c1ccc2c(c1)OC(F)(F)O2 (centres unmarked) [drawing 73]
- CC50 (HepG2 cells): 53.7 µM
- CC50 [1]: 53.7 µM
- IC50 (P. yoelii): 5.62 µM
- IC50 (P. falciparum [2]; [6]): 13.5 µM

SMILES: COc1cc(C(O)C(C)Oc2c(OC)cc(C)cc2OC)cc(OC)c1OC (centres unmarked) [drawing 77]
- CC50 (HepG2 cells): 49.5 µM
- CC50 [1]: 49.5 µM
- CC50 [4]: 125 µM
- IC50 (P. falciparum [3]; Plasmodium falciparum, Hepatocyte, 144 h): 0.38 µM
- IC50 (P. yoelii): 0.0045 ± 0.005 µM
- IC50 (P. falciparum [2]; [6]): > 40 µM

SMILES: COc1cc(C(O)C(C)Oc2c(OC)cccc2OC)cc(OC)c1OC (centres unmarked) [drawing 74]
- CC50 (HepG2 cells): 57.9 µM
- CC50 [1]: 58 µM
- IC50 (P. yoelii): 28.6 µM
- IC50 (P. falciparum [2]; [5]): > 40 µM

SMILES: COc1cc(C(O)C(C)Oc2c(OC)cccc2OC)cc(OC)c1OC (centres unmarked) [drawing 75]
- CC50 (HepG2 cells): 0.126 µM
- IC50 (P. yoelii): 2.52 µM

SMILES: COc1cc(NC(C)CCCN)c2ncccc2c1 (centres unmarked) [Primaquine, reference compound]
- CC50 (in vitro): 12.6 µM

SMILES: COc1cc(C(O)C(C)Oc2c(OC)cc(-c3ccccc3)cc2OC)cc(OC)c1OC (centres unmarked) [drawing 78]
- CC50 (in vitro): > 50 µM
- CC50 [1]: 50 µM
- CC50 [4]: 50 µM
- IC50 (P. falciparum [3]): 0.02 µM
- IC50 (P. yoelii; [7]): 3.54 ± 4.9 µM
- IC50 (P. falciparum [2]; [5]): 11.5 µM

SMILES: COc1cccc(OC)c1OC(C)C(O)c1ccc2c(c1)OC(F)(F)O2 (centres unmarked) [drawing 71]
- CC50 [1]: 53 µM
- IC50 (P. yoelii): 20.2 µM
- IC50 (P. falciparum [2]; [6]): > 40 µM

SMILES: CCN(CC)CCCC(C)Nc1ccnc2cc(Cl)ccc12 (centres unmarked) [Chloroquine, reference compound]
- IC50 (P. falciparum [2]; Plasmodium falciparum, Erythrocyte, 72 h): 0.04 µM

SMILES: COc1cccc(OC)c1OC(C)C(O)c1ccc2c(c1)OC(F)(F)O2 (centres unmarked) [drawing 70]
- CC50 (in vitro): 54.9 µM
- CC50 [1]: 55 µM
- IC50 (P. yoelii; [7]): 20.1 µM
- IC50 (P. falciparum [2]; [5]): > 40 µM
